Columns and labels:
Format in all cases: physicochemical
[1] = Dynamic Vapor Sorption (DVS) analysis; conditions: from 0% RH to 80% RH, 25° C.
Protocol: The dynamic vapor sorption (DVS) instrument involved herein is Q5000TGA from TA Instruments; detection conditions: a platinum crucible, a protective atmosphere of nitrogen, a gas flow rate of 10 mL/min; and the following detection method: [table] 5. Dynamic Vapor Sorption (DVS) Analysis of Said Crystalline Form A The determination was carried out using the aforementioned instruments, determination methods, operating conditions, and parameters.

[2] = Thermogravimetric Analysis (TGA)
Protocol: The thermogravimetric analyzer (TGA) involved herein is Q500TGA from TA Instruments; detection conditions: a platinum crucible, a protective atmosphere of nitrogen, a gas flow rate of 40 mL/min; and the following detection method: a Hi-Res sensitivity of 3.0, ramp 10.00° C./min, res 5.0 to 150.00° C., and ramp 10.00° C./min to 350° C. 4. Thermogravimetric Analysis (TGA) of Said Crystalline Form A The determination was carried out using the aforementioned instruments, determination methods, operating conditions, and parameters.

[3] = Stability test of Crystalline Form A (XRD and DSC, Day 0 / Day 10); conditions: for change of crystalline form (XRD test): within 10 days
Protocol: Sample and experimental preparation: the Crystalline Form A as prepared in Example 2 was taken as a sample; a proper amount of the sample was weighted and placed on a watch glass to form a thin layer of about 3˜5 mm in thickness.
Experimental conditions: conventional (sealed and kept in darkness at 25° C.), long-term (uncovered and kept in darkness with −60% RH at 25° C.), and accelerated (uncovered and kept in darkness with −75% RH at 40° C.) conditions.
Detection time: Day 0, Day 10.
Detected items: crystalline forms (XRD test), and melting points (DSC test).

For `[2H]C([2H])(CCS(=O)(=O)O)NC(=O)[C@@H](N)C(C)C` [Crystalline Form A, 3-((L-valyl)amino)-3,3-dideuterium-1-propanesulfonic acid], the “hygroscopicity class (DVS determination criteria)” value [1] was “slightly hygroscopic”, the “weight change (DVS isotherm)” value [1] was “about 0.3 wt %” and the “weight loss (TGA)” value ([2]; before 120° C.) was “about 0.9 wt %”. The “decomposition temperature (TGA)” value ([2]; ramp 10° C./min, nitrogen) was “about 326 °C”, the “variation of melting point (DSC test)” value [3] was “±1 °C” and the “change of crystalline form (XRD test)” value ([3]; accelerated: uncovered, kept in darkness with −75% RH at 40° C.) was “no change was detected”. For the same compound, the “change of crystalline form (XRD test)” value ([3]; conventional: sealed, kept in darkness at 25° C.) was “no change was detected” and the “change of crystalline form (XRD test)” value ([3]; long-term: uncovered, kept in darkness with −60% RH at 25° C.) was “no change was detected”.

Source: patent publication US11186543B2, “Crystalline form of 3-((L-valyl)amino))-3,3-dideuterium-1-propanesulfonic acid, preparation method and uses thereof” (RISEN (SUZHOU) PHARMA TECH CO., LTD., priority 2018, dated 2021)
